Our source for the logP values is the SangsterLogP compilation.

In general, logP refers to the decadic logarithm of the partition coefficient of the neutral form, usually between octanol and water. `NC1=C(Cl)C(=O)c2ccccc2C1=O` registered a logP of 2.12. With `ClCCl`, the logP was 1.25. `O=C(O)c1cc([N+](=O)[O-])ccc1O` gave a logP of 2.34. The molecule `Nc1cccc(S(N)(=O)=O)c1` came in with a logP of -0.38. In turn, `CCCNC(C)CC` (centres undefined) returned a logP of 1.91. Regarding `Nc1nc2c(ncn2[C@H]2C[C@H](O)[C@@H](CO)O2)c(=O)[nH]1`, the logP was -1.3. Molecule `CCCCCBr` registered a logP of 3.37.

The molecule `O=[N+]([O-])c1cccc2c1c([N+](=O)[O-])cc[n+]2[O-]` registered a log partition coefficient (logP) of 0.95. The molecule `CC/C(=C/c1ccccc1)[N+](=O)[O-]` came in with a logP of 2.86. Turning to `CC(C)CN`, the logP was 0.73. The molecule `CCBr` returned a logP of 1.61.

`N#Cc1ccc(O)cc1` displayed a logP of 1.6. Molecule `O=C(NC(O)Cc1ccc([N+](=O)[O-])cc1)C(F)(F)F` (centres undefined) displayed a logP of 1.46. The logP values of the last two molecules are within 0.2 log units of each other. `COC1C(Cl)C(Cl)C(Cl)C(Cl)C1OC` (centres undefined) returned a logP of 2.82. The molecule `CCC1(CC)C(=O)NC(=S)NC1=O` had a logP of 1.5. Molecule `Oc1c(Cl)cc(Cl)c(Cl)c1Cl` returned a logP of 4.45. `C[C@H](CS)C(=O)N1CCC[C@H]1C(=O)O` displayed a log partition coefficient (logP) of 0.34. The molecule `COc1ccc(CC(=O)O)cc1` had a logP of 1.42. `O=[N+]([O-])c1cc(Br)c(O)c(Br)c1` registered a logP of 3.57.

With `COc1cccc(/C=C/[N+](=O)[O-])c1`, the logP was found to be 2.37. The molecule `COC(=O)[C@H]1[C@@H](OC(=O)c2ccccc2)C[C@@H]2CC[C@H]1N2C` displayed a logP of 2.3. Next, `Nc1ccc(Oc2ccccc2)cc1`: 2.96; `CNC(=O)Oc1cccc(C#N)c1`: 0.97; `CCC1(CC)C(=O)NC(=O)NC1=O`: 0.65. `CC(C)Sc1nnc(C(C)C)c(=O)n1N` showed a logP of 2.06. Take `CCOC(=O)C(C#N)=NNc1ccc(Cl)c(Cl)c1`: the logP is 4.66. On to `c1cnc2c(c1)ccc1ncccc12`, for which the logP was 2.51. Consider `CNC(=O)c1ccccc1`, for which the logP was determined as 0.86. Molecule `Cc1ccc(C)c(O)c1` came in with a logP of 2.33.

For `NS(=O)(=O)c1ccccc1[N+](=O)[O-]`, the logP came out at 0.34. `CC(=O)Nc1ccccc1` came in with a logP of 1.16. `CCN(CC)N=O` showed a logP of 0.48.

In turn, `CI` returned a logP of 1.51. In turn, `CCC=Cc1ccccc1[N+](=O)[O-]` came in with a logP of 2.86. In turn, `CC(C)C[C@H](N)C(=O)O` displayed a logP of -1.52. As to `C=CCOc1ccccc1OCC(O)CNC(C)C` (centres undefined), the logP is 2.1.

Consider `Cc1c[n+]([O-])c2ccccc2c1[N+](=O)[O-]`, for which the logP amounted to 1.06.

With `OCCN1CCN(CC/C=C2\c3ccccc3Sc3ccc(Cl)cc32)CC1`, the logP came to 4.18. `CCOC(=O)c1ccc(O)cc1` returned a logP of 2.47. `CF` came in with a logP of 0.51. The figure for `CNC(=O)OC` is -0.06. In turn, `Nc1ccn(C2C=CC(CO)O2)c(=O)n1` (centres undefined) came in with a log partition coefficient (logP) of -1.55. As for `CCc1ccccc1C`, the logP was 3.53. The figure for `CC(=O)c1ccncc1` is 0.48. Regarding `Oc1cccc(F)c1`, the logP is 1.93. As to `BrCBr`, the logP came out at 1.7. Take `CCCOC(=O)c1ccc(S(N)(=O)=O)cc1`: the logP was 1.75. In turn, `CCCCOc1cc(C(=O)NCCN(CC)CC)c2ccccc2n1` had a logP of 4.4. Molecule `N#Cc1ccc([N+](=O)[O-])cc1` registered a logP of 1.19. In turn, `Nc1ccc(Cl)c(Cl)c1` came in with a logP of 2.69. For `O=C(O)c1c(O)cccc1O`, the logP came to 2.2. In the case of `O=c1ccn([C@H]2C[C@H](F)[C@@H](CO)O2)c(=O)[nH]1`, the logP was -0.49. `Oc1cc(Cl)c(Cl)cc1Cl` came in with a logP of 3.72.

With `CNC(=O)Oc1cccc(I)c1`, the logP worked out at 2.52. Next, `O=C(O)CCc1ccccc1`: 1.84; `O=C1OC(=O)c2ccccc21`: 1.6; `O=C(O)CCCCn1nnc2ccccc21`: 0.48. For the molecule `Nc1ncnc2[nH]cnc12`, the logP is -0.09.

Turning to `CN1CC[C@]23c4c5ccc(O)c4O[C@H]2C(=O)CC[C@@]3(O)[C@H]1C5`, the lipophilicity (logP) came to 0.83. The molecule `OC(c1ccccc1)C1CC1` (centres undefined) registered a logP of 1.95. In turn, `O=C1C=CC(=NO)C=C1` displayed a logP of 1.08.

For `CCOC(C)=O`, the logP is 0.73.

Turning to `CN1CCC(=C2c3ccccc3C=Cc3ccccc32)CC1`, the logP was 4.69.

As to `Cc1ccc2cc(C)ccc2c1`, the logP came to 4.31. For the molecule `NCCc1c[nH]c2ccccc12`, the logP is 1.55. On to `Nc1cccc(Cl)c1`, for which the logP stood at 1.88.

As for `COc1cc(C(=O)NN)ccn1`, the logP was -0.1.

`CNC(=O)Oc1cccc(C)c1` yielded a logP of 1.7.

Molecule `CC(=O)C(C#N)=NNc1ccc(Cl)cc1` yielded a logP of 4.1. In turn, `CNC(=O)Oc1ccccc1I` showed a logP of 1.94. On to `CC(=O)Nc1ccccn1`, for which the logP was found to be 0.61.

`NCCCC[C@H](N)C(=O)O`: the logP is -3.05. On to `O=c1ccn([C@@H]2O[C@H](CO)[C@@H](O)[C@H]2O)c(=O)[nH]1`, for which the logP is -1.98. `CC1(C)S[C@@H]2[C@H](NC(=O)COc3ccccc3)C(=O)N2[C@H]1C(=O)O` displayed a logP of 2.09. With `CC(C)(S)[C@@H](N)C(=O)O`, the logP is -1.78. The figure for `CCCC(CO)n1cnc2c(N)ncnc21` (centres undefined) is 0.66.

`c1cncnc1` displayed a logP of -0.4. `N#Cc1cccs1` showed a logP of 1.27. In turn, `Cc1ccnc(N)c1` came in with a logP of 0.56. For the molecule `Nc1ncnc2c1ncn2[C@@H]1O[C@H](CO)[C@@H](O)[C@H]1O`, the logP is -1.05. `CC(=O)C(C#N)=NNc1ccc(Cl)c(Cl)c1`: the logP was determined as 4.56. Consider `C=CCOc1cc(C(=O)O)ccc1N`, for which the logP was determined as 1.25.

For the molecule `Cc1ccnc2c(O)cccc12`, the logP amounted to 2.41. As to `CC(=O)c1ccccn1`, the logP is 0.85. Consider `Nc1cccc(Cl)c1Cl`, for which the logP was found to be 2.82. The molecule `O=CNc1ccccc1` returned a log partition coefficient (logP) of 1.15.

Molecule `Cc1ccc(C)c(C)c1` registered a logP of 3.63. Next, `CO/N=C/c1ccccc1`: 2.53. The molecule `CC(=O)c1ccc(N)cc1` yielded a logP of 0.83. `O=c1[nH]cc(F)c(=O)[nH]1`: the logP was -0.89.

`Cc1ccc(C)c2ccccc12` gave a log partition coefficient (logP) of 4.37. `Oc1cccc(Br)c1` displayed a logP of 2.63. The molecule `CC(C)CO` gave a logP of 0.76. Next, `COC(=O)C(C#N)=NNc1ccc(Cl)cc1C(F)(F)F`: 4.66; `CC(=O)OC1C(Cl)C(Cl)C(Cl)C(Cl)C1Cl` (centres undefined): 3.4; `O=[N+]([O-])c1cccc(Cl)c1`: 2.46. For the molecule `O=C(O)c1cccc(I)c1`, the logP was determined as 3.13. As for `c1cnccn1`, the logP was -0.26. The figure for `COc1cccc(C=O)c1O` is 1.37; for `Nc1ccncc1` it is 0.26; for `O=C(O)c1cccc([N+](=O)[O-])c1` it is 1.83. The molecule `C#C` showed a logP of 0.37. In turn, `CC(=O)Oc1ccccc1C(=O)O` registered a logP of 1.19.

With `CCN`, the logP is -0.13.

As to `CCCCCCCC(C)=O`, the logP came out at 3.14. In turn, `c1ncncn1` came in with a logP of -0.73.

`Cc1cccc2c([N+](=O)[O-])cc[n+]([O-])c12` yielded a logP of 1.59. Next, `c1ccc2c(c1)CCC2`: 3.18; `N#Cc1cccc([N+](=O)[O-])c1`: 1.17; `CCCC(C)C1(CC)C(=O)NC(=O)NC1=O` (centres undefined): 2.1. Molecule `CN1C(=O)CC(=O)N(c2ccccc2)c2cc(Cl)ccc21` had a logP of 2.12. In the case of `N=c1[nH]c(=O)c2ncn([C@@H]3C=C[C@@H](CO)O3)c2[nH]1`, the logP is -1.21. `c1ccnnc1` showed a logP of -0.72. The figure for `NC12CC3CC(CC(C3)C1)C2` is 2.44; for `c1ccc(-c2ccncc2)cc1` it is 2.59. The figure for `O=C(O)c1ccccc1Oc1ccccc1` is 3.11; for `Nc1ccccc1` it is 0.9.

For `CCCCNCCC`, the logP came to 2.12.

`NCCc1cccnc1` gave a logP of -0.11. In the case of `CCC1(c2ccccc2)C(=O)NC(=O)NC1=O`, the logP was found to be 1.47. In the case of `CCOC1(c2ccccc2)OCCN(C)C1C` (centres undefined), the logP is 2.27. `CN(C)CCN1C(=O)c2ccccc2N(C)c2ccccc21` yielded a logP of 2.5. As to `Cc1cc(Cl)ccc1NN=C(C#N)C(=O)C(C)C`, the logP came to 4.31. For the molecule `Nc1ccc(-c2ccc(N)cc2)cc1`, the logP is 1.34. Molecule `Nc1nc2c(ncn2[C@H]2C[C@H](O)[C@@H](CO)O2)c(=S)[nH]1` returned a logP of -0.79. The molecule `O=C(O)c1cccc2ccccc12` gave a logP of 3.1. The figure for `O=C(CCNNC(=O)c1ccncc1)NCc1ccccc1` is 0.87. As to `CN1C(C(=O)Nc2ccccn2)=C(O)c2ccccc2S1(=O)=O`, the logP came to 3.06.

Regarding `CCOC(=O)Nc1ccccc1`, the logP came out at 2.3.

Regarding `COC(=O)C(C#N)=NNc1ccc(Cl)c(C(F)F)c1`, the logP stood at 3.8.

As for `CCCCCn1nnc2ccccc21`, the log partition coefficient (logP) is 3.22.

In turn, `CC(C)N(N=O)C(C)C` showed a logP of 1.38. In the case of `CNC(=O)Oc1ccc(F)cc1`, the logP amounted to 1.28. With `O=C(O)C(c1ccccc1)c1ccccc1`, the logP turned out to be 3.09. The figure for `Cc1c(Cl)cccc1Nc1ccccc1C(=O)O` is 5.17; for `CNC(=O)Oc1ccc(C(C)C)c(C)c1` it is 3.11; for `OC[C@H]1O[C@@H](n2cnc3c(O)ncnc32)[C@H](O)[C@@H]1O` it is -2.1. Next, `NS(=O)(=O)c1cccc(Cl)c1`: 1.29; `CNC(=O)Oc1ccc(I)cc1`: 2.46; `COc1cccc(N)c1`: 0.93.

The molecule `OCc1ccccc1O` gave a logP of 0.73.

For `CC(=O)C=Cc1ccccc1`, the logP was 2.07. `CCOC(C)OCC`: the logP turned out to be 0.84.

For `CC(CN1CCOCC1)C(C(=O)N1CCCC1)(c1ccccc1)c1ccccc1` (centres undefined), the logP came to 3.61.
